One series concerns LGG isolates. The series can be described thus: Antimicrobial susceptibility (MIC) test, Sensititre COMPGP1F gram-positive panel, CLSI interpretation. The class given is cell-based, Lactobacillus rhamnosus GG. Conditions: all LGG isolates after heat treatment and storage. On the procedure: Antimicrobial susceptibility or minimum inhibitory concentration (MIC) test was performed using the Sensititre® system COMPGP1F gram-positive systemic panel. The test used the Clinical and Laboratory Standards Institute (CLSI) guidelines for interpretation of MIC values. All of the isolates were examined for susceptibility to 23 antimicrobial agents included in the gram-positive panel of the National Antimicrobial Resistance Monitoring System (NARMS), including amikacin, ampicillin, augmentin, cefazolin, cefovecin, cefpodoxime, cephalothin, chloramphenicol, clindamycin, doxycycline, enrofloxacin, erythromycin, gentamicin, imipenem, marbofloxacin, minocycline, nitrofurantoin, oxacillin + 2% NaCl, penicillin, pradofloxacin, rifampin, tetracycline, trim/sulfa.

Series [1] concerns Lactobacillus rhamnosus GG (LGG, ATCC 53103). The series can be described thus: Bacterial survivability test (colony count) of LGG stored in food-grade oils at room temperature. It is filed as physicochemical. The settings on record: under all conditions. On the procedure:
PBS at pH 7.4 was used as a control for each temperature. Each individual vial containing 20 mL of oil was heated to reach the desired temperature and the temperature equilibrated for 15-20 minutes. To each heated vial, 0.05 g of LGG powder was added. For prebiotic treatment, 0.05 g of inulin were added before the addition of LGG. The vial containing the oil-bacteria mixture was held at temperature for 1 minute with gentle stirring. Finally, the vial was taken out of the oil bath and cooled to room temperature over a range of 25 to 45 minutes depending on the heating treatments. As control samples, the LGG powder was added to each type of oil and PBS (pH 7.4) with the samples not heated. FIG. 1A illustrates the experimental set up for the heat treatment.
To prevent bacterial growth during storage of probiotics in aqueous solutions, oil was used as a barrier to water penetration and thus serves to preserve and prevent spoilage of the probiotic products. Before the storage of bacteria in oil, the LGG concentration in each type of oil was quantified and recorded as the initial concentration. […] The control medium was 20 mL of PBS at pH 7.4. For the control sample, 0.05 g of the bacteria were added to PBS and, after mixing, cultured on MRS agar plates. […] The survivability of the bacteria was assessed at specific time points over a year using the colony count technique. […]

As to `CC1(C)S[C@@H]2[C@H](NC(=O)[C@H](N)c3ccccc3)C(=O)N2[C@H]1C(=O)O` [ampicillin], the “antimicrobial sensitivity of the isolates (CLSI interpretation of MIC)” value (shortened to “antimicrobial sensitivity”) in the series on LGG isolates was “intermediate sensitivity”. Still for that read-out and setting: as for `Cc1nnc(SCC2=C(C(=O)O)N3C(=O)[C@@H](NC(=O)Cn4cnnn4)[C@H]3SC2)s1` [cefazolin], the entry is “resistance”. On the same count and under the same terms, next, `CC[C@H]1OC(=O)[C@H](C)[C@@H](O[C@H]2C[C@@](C)(OC)[C@@H](O)[C@H](C)O2)[C@H](C)[C@@H](O[C@@H]2O[C@H](C)C[C@H](N(C)C)[C@H]2O)[C@](C)(O)C[C@@H](C)C(=O)[C@H](C)[C@@H](O)[C@]1(C)O` [erythromycin]: “susceptible”. Take augmentin: the “antimicrobial sensitivity” value in the series with LGG isolates is “susceptible”. For the molecule inulin, in series [1], the “effect on survival rates of the bacteria” value is recorded as “reduced the survival rates”. On to oxacillin [oxacillin + 2% NaCl], for which, in the series with LGG isolates, the “antimicrobial sensitivity” value is given as “susceptible”. Same read-out and setting: as for penicillin, the entry is “resistance”.
